{
  "source": "patent US5814640A",
  "about": "“Method of treating gastrointestinal malignancies” (Montefiore Medical Center, priority 1997, dated 1998)",
  "key": {"SW480": {"tested_on": "SW480", "experiment": "Cytokinetic studies (cell cycle distribution by flow cytometry), SW480", "format": "cell-based, human", "procedure": "Cells were cultured in RPMI 1640 with 10% fetal calf serum.\nThe DNA content of propidium-iodide stained nuclei was measured by flow cytometry. Cells in early exponential growth were incubated with or without drug, trypsinized and washed twice in PBS. A total of 10^6 viable cells, as determined by trypan blue exclusion, were permeabilized in sucrose-citrate-DMSO buffer as described by Vindelov et al., enucleated with trypsin and incubated with RNAse. Stripped nuclei were stained with propidium iodide at a final concentration of 2.5 ug/ml. Correlated dual parameter measurements of DNA content (from propidium-iodide red fluorescence excited at 488 nm) versus forward angle light scatter were performed using an EPICS C flow cytometer equipped with a 5W ultraviolet enhanced argon ion laser. Histograms consisting of a minimum of 10,000 nuclei were analyzed off-line with an EPICS C to RSX-11M conversion program (EPICOPY) and subsequently analyzed with ROMP and ROC3D programs rewritten for a DEC 11/73 computer. Cell cycle analysis for the compartmental boundaries and number of cells in the G1, S, and G2M phases was performed on ROMP-readable files using either a multiple gaussian fitting routine developed by Dean et al. or, for the perturbed histograms, a parametric method based on multiple broadened rectangles."}, "HT-29": {"tested_on": "HT-29", "experiment": "Cytokinetic studies (cell cycle distribution by flow cytometry), HT-29", "format": "cell-based, human", "quoted_text": "Cells were cultured in RPMI 1640 with 10% fetal calf serum. Doubling times for these cell lines are 18 and 25 hours.\nThe DNA content of propidium-iodide stained nuclei was measured by flow cytometry. Cells in early exponential growth were incubated with or without drug, trypsinized and washed twice in PBS. A total of 10^6 viable cells, as determined by trypan blue exclusion, were permeabilized in sucrose-citrate-DMSO buffer as described by Vindelov et al., enucleated with trypsin and incubated with RNAse. Stripped nuclei were stained with propidium iodide at a final concentration of 2.5 ug/ml. Correlated dual parameter measurements of DNA content (from propidium-iodide red fluorescence excited at 488 nm) versus forward angle light scatter were performed using an EPICS C flow cytometer equipped with a 5W ultraviolet enhanced argon ion laser. Histograms consisting of a minimum of 10,000 nuclei were analyzed off-line with an EPICS C to RSX-11M conversion program (EPICOPY) and subsequently analyzed with ROMP and ROC3D programs rewritten for a DEC 11/73 computer. Cell cycle analysis for the compartmental boundaries and number of cells in the G1, S, and G2M phases was performed on ROMP-readable files using either a multiple gaussian fitting routine developed by Dean et al. or, for the perturbed histograms, a parametric method based on multiple broadened rectangles. […]"}, "colorectal cancer": {"tested_on": "colorectal cancer", "settings": "cited from earlier work"}, "[1]": {"settings": "5-fluorouracil 50-500 uM, 24 hour incubation"}, "[2]": {"settings": "alone or in combination, data not shown"}},
  "data": [
    {"smiles": "O=c1[nH]cc(F)c(=O)[nH]1", "note": "[5-fluorouracil]", "values": [
      {"measurement": "G2M compartment, dose response", "setting": "SW480; [1]", "result": "nearly complete depletion of G2M"},
      {"measurement": "accumulation of cells in S and G2M", "setting": "SW480; 24 hours, alone or in combination, data not shown", "result": "concomitant decrease in the accumulation of cells in S and G2M at 24 hours"},
      {"measurement": "block in G0/G1", "setting": "SW480; [2]", "result": "prolongation of the block in G0/G1 to 24 hours"},
      {"measurement": "effects on cell cycle distribution compared with HT-29", "setting": "SW480; [2]", "result": "qualitatively identical effects"},
      {"measurement": "G2M compartment, dose response", "setting": "HT-29; [1]", "result": "nearly complete depletion of G2M"},
      {"measurement": "time of G2M depletion from start of incubation", "setting": "HT-29; time course, 5-fluorouracil 50 uM, alpha-2a-interferon 500 U/ml", "result": "≤ 7", "unit": "h"},
      {"measurement": "median survival of treated patients", "setting": "colorectal cancer; compared with untreated controls", "result": "no better than that of untreated controls"},
      {"measurement": "remissions in patients", "setting": "colorectal cancer; disseminated colorectal cancer", "result": "15-35 % of patients"}
    ]}
  ]
}
